# From patent US9260326B2, “Selective oxoanion separation using a tripodal ligand” (UT-BATTELLE, LLC, priority 2012, dated 2016)
# Tests used:
# [1] = Mg-based system (Rajbanshi et al. 2012); cited from earlier work
# [2] = Sulfate separation and L1 recycling, Mg-based system, Simulant 1
# Description: For comparison purposes, solid L1.2H2O (478 mg, 0.88 mmol) and Mg(NO3)2 (113 mg, 0.44 mmol) were added to 10 mL of Simulant 1 solution (Table 1) containing 0.44 mmol SO4^2−. The mixture was stirred magnetically at room temperature for 48 h, and the resulting solid was filtered, washed with water, and dried. The identity of the crystalline product, MgSO4(L1)2(H2O)6 (Compound 3) was confirmed by PXRD and FTIR spectroscopy.
# To recover and recycle L1, crystals of Compound 3 (457 mg, 0.368 mmol) were dissolved in 1 M HNO3 (1 mL) to form a clear solution to which was added 1 M NaOH (2 mL). The mixture was stirred at room temperature overnight, and the resulting solid was filtered, washed with water, and dried. Yield: 388 mg. […] The solid mixture of L1.2H2O and Mg(OH)2 could be recycled by adding it to a fresh solution of the simulant, thereby initiating another separation cycle.
# The recovered solid L1 and magnesium hydroxide were then added to a fresh simulant solution to start another cycle. Such cycling was repeated twice more. […] This established that the ligand is robust enough to survive at least three recovery cycles. Although this magnesium-based system is not applicable to the full alkaline conditions encountered in the nuclear waste, the ease of operation coupled with high efficiency and good ligand recyclability opens the door to other industrial sulfate separations from simpler, less basic aqueous solutions.
# [3] = Relative solubility in water; format: physicochemical; conditions: pure water
# Source text: The final crystalline solid was isolated in 90% yield, and its PXRD and FTIR spectra corresponded to those of pure Compound 1 (FIG. 4). The relatively long reaction time required to convert L1 to Compound 1 appeared to proceed via a three-phase process involving slow dissolution of L1 and its recrystallization into Compound 1.
# [4] = Pairwise competitive crystallization with L1, Na-based system
# Description: (§1) The experiments described below were generally conducted as described above and as described in Rajbanshi et al. 2012.
# To assess the size recognition of the crystalline capsule in the Na-based system, similar pairwise competitive crystallization experiments were performed with L1 (two equivalents) and Na2SO4/Na2SeO4 mixtures (one equivalent each) in H2O/MeOH. […] The SO4^2−/SeO4^2− molar ratio found in the crystalline solid resulting from the competitive crystallization was 31.3, indicating strong size recognition for SO4^2−. […] The increased SO4^2−/SeO4^2− selectivity in the Na-based system may be attributed to the smaller size of the Na capsule (d(N . . . N)=9.51 Å) compared to the Mg capsule (d(N . . . N)=9.65 Å), which favored the smaller sulphate anion.
# In comparison with the good SO4^2−/SeO4^2− selectivity observed in the Na-based crystallizations, the competitive crystallization experiment involving a Na2SO4/Na2CrO4 mixture under similar conditions yielded crystals with a SO4^2−/CrO4^2− ratio of only 2.0. […] As a result, binding of chromate is inherently favored due to its stronger hydrogen bond acceptor ability compared to sulphate, a factor that apparently offsets much of the size discrimination effect.
# [5] = Pairwise competitive crystallization with L1, K-based system
# Source text: as §1
# For the K-based system, pairwise competitive crystallizations with L1 gave SO4^2/SeO4^2− selectivity and SO4^2−/CrO4^2− selectivity ratios of 13.3 and 1.1, respectively. The potassium capsule was the smallest of the three systems (d(N . . . N)=9.21 Å).
compound,measurement,setting,value
O=C(NCCN(CCNC(=O)Nc1cccnc1)CCNC(=O)Nc1cccnc1)Nc1cccnc1 [Compound L1],SO4^2−/SeO4^2− ratio,[1],3
same,recovery of sulfate,"[2]; Simulant 1, first listed cycle",99.6%
same,recovery of sulfate,"[2]; Simulant 1, second listed cycle",99.4%
same,recovery of sulfate,"[2]; Simulant 1, third listed cycle",97.9%
same,solubility relative to Compound 1,[3],less soluble than Compound 1
same,molar ratio of sulphate over competing carbonate in crystals,"[4]; L1 2 equiv, Na2SO4 and Na2CO3 1 equiv each, H2O/MeOH, elemental analysis",11.5
same,molar ratio of sulphate over competing sulphite in crystals,"[4]; L1 2 equiv, Na2SO4 and Na2SO3 1 equiv each, H2O/MeOH, elemental analysis",5.9
same,SO4^2−/CrO4^2− ratio in crystals,[4]; Na2SO4/Na2CrO4 mixture,2.0
same,SO4^2−/CrO4^2− selectivity ratio,[5],1.1
same,SO4^2−/SeO4^2− selectivity ratio,[5],13.3
